A short description of this data set: Comparison of physical properties: solubility in esters, ketones, ethers. In kind it is physicochemical. Conditions: organic solvents: esters. The protocol:
The following is a comparative example, comparing substantially pure lercanidipine free base prepared as described in example 1 (a to d) with crude free base prepared by the method of U.S. Pat. No. 4,705,797 and lercanidipine hydrochloride. Crude free base was prepared as described below. Lercanidipine hydrochloride was obtained from Recordati S.p.A., Milan, Italy.

The values that follow come from patent US20060199849A1, “Solid lercanidipine free base” (Recordati Ireland Limited, priority 2005, published 2006).

Where a name gives a salt, the structure may show the parent alone.

For `COC(=O)C1=C(C)NC(C)=C(C(=O)OC(C)(C)CN(C)CCC(c2ccccc2)c2ccccc2)C1c1cccc([N+](=O)[O-])c1` (centres unmarked) [Crude Free Base, methyl 1,1,N-trimethyl-N-(3,3-diphenylpropyl)-2-aminoethyl 1,4-dihydro-2,6-dimethyl-4-(3-nitrophenyl)pyridine-3,5-dicarboxylate], the “Solubility in esters, ketones, ethers” value is recorded as “Very soluble”.
In the case of `COC(=O)C1=C(C)NC(C)=C(C(=O)OC(C)(C)CN(C)CCC(c2ccccc2)c2ccccc2)C1c1cccc([N+](=O)[O-])c1` (centres unmarked) [Lercanidipine Hydrochloride, lercanidipine hydrochloride], for the setting “hydrochloride”, the “Solubility in esters, ketones, ethers” value is “insoluble”.
